How the values were obtained:
[1] = tested on: Chronic Liver Damage (thioacetamide); experiment: Therapeutic effect on chronic liver damage (thioacetamide model), BSP test; format: in vivo, rats (Sprague Dawley strain); settings: 12 times TAA 100 mg/kg, then diet + 0.2% compound
Description: In the tests of this Example, TAA was repeatedly administered to animals to prepare test animals suffering from somewhat chronic liver damages, and then the present compounds were administered thereto to know whether or not the compounds were effective against chronic hepatitis.
The degree of the liver damage and the therapeutic effects of the compounds were evaluated according to BSP test. The BSP test is a method in which BSP (sulfobromophthalein sodium), a dye known to be quickly metabolized in and excreted from the liver, is intravenously injected into animals and, after a definite period of time, the blood is taken out to measure the amount of BSP remaining in the plasma. In case the animals are suffering from the liver damage, the dye will remain, according to the degree of the damage, at the stage where a major portion of BSP is metabolized and excreted in the case of normal animals.
Five groups of rats (Sprague Dawley strain) were treated as follows:
Group A: The rats were orally administered with 100 mg/kg of thioacetamide,at 3 days intervals for 36 days (12 times of the administration), then were submitted for 10 days to a normal diet.
Group B: The rats were orally administered with 100 mg/kg of thioacetamide at 3 days intervals for 36 days (12 times of the administration), then were submitted for 10 days to the normal diet + 0.2% of compound 4.
Group C: The rats were orally administered with 100 mg/kg of thioacetamide at 3 days intervals for 36 days (12 times of the administration) then were submitted for 10 days to the normal diet + 0.2% of compound 2.
Group D: The rats were orally administered with 100 mg/kg of thioacetamide at 3 days intervals for 36 days (12 times of the administration) then were submitted for 10 days to the normal diet + 0.2% of anethol trithion.
Group E: The rats were submitted to the normal diet as the control.
Five rats were sacrified from each group at appropriate intervals for BSP (sulfobromophthalein) test, the results of which were shown as amounts (mg) of BSP remaining in 1 dl of plasma.

fatty liver (ethionine) = experiment: Effect on fatty liver (ethionine model); format: in vivo, male mice (4 week-old, dd-strain); settings: diet plus 0.2% ethionine and 0.2% compound, 5 days
Text: There are known many factors inducing fatty liver. But, the fatty liver is grouped into a couple of patterns from the mechanism of lipid accumulation or metabolism of lipoprotein in the liver. Ethionine is a typical compound inducing fatty liver. It inhibits RNA and protein syntheses and destructs polysome of the liver cell. Fatty liver is induced by the inhibition of protein synthesis and the disturbance of lipoprotein secretion.
Usually, fatty liver is closely related to the accumulation of triglyceride in the liver. In the present example, the degree of fatty liver and protective or therapeutic effect against the fatty liver was evaluted by measurement of triglyceride content in the liver.
The animals used in the test were 4 week-old male mice (dd-strain).
The mice were submitted for 5 days to a normal diet (control), to the normal diet plus 0.2% ethionine (positive control), to the normal diet plus 0.2% ethionine and 0.2% of the compound of this invention, or to the normal diet plus 0.2% ethionine and 0.2% methionine which was the referential diet. At the end of the period of 5 days, content of triglyceride in the liver was studied colorimetrically by chromotropic acid method and the result was represented as triolein content (mg/g-liver).

[2] = tested on: acute liver damage associated with discrete lobular necrosis (D-galactosamine); experiment: Protective effect on acute hepatitis with mesenchymal reaction and discrete lobular necrosis (D-galactosamine model); format: in vivo, male rat (SD strain); settings: 100 mg/kg oral 6 h before D-galactosamine
Description: D-Galactosamine is a compound which induces a discrete lobular necrosis associated with mesenchymal reaction similar to the change observed in human viral hepatitis, so that it is frequently used in producing a model for viral hepatitis.
The compound of this invention or anethol trithion was administered orally to the male rat (SD strain) at the dose of 100 mg/kg. Six hours after it, D-galacetosamine was intraperitoneally administered at the dose of 600 mg/kg. Four hours after it, an additional 300 mg/kg was administered intraperitoneally. Eight hours after it, the animals were sacrificed to collect the blood samples. P-GPT activity and triglyceride in the liver were measured to evaluate the effect of the compound of this invention.

[3] = tested on: acute liver damage associated with periportal necrosis (allyl alcohol); experiment: Protective effect on acute liver damage associated with periportal necrosis (allyl alcohol model), BSP test; format: in vivo, male mouse (4 week-old dd-strain); settings: 100 mg/kg oral 6 h before allyl alcohol 0.075 ml/kg; 24 h after
Description: The compound of this invention or anethol trithion was orally administered to the male mouse (4 week-old dd-strain) at the dose of 100 mg/kg. Six hours after it, allyl alcohol was orally administered at the dose of 0.075 ml/kg. Twenty four hours after it, the animals were sacrificed to collect blood samples. The residual quantity of BSP was measured by BSP test, from which the protective effect of the compound of this invention was evaluated.

[4] = tested on: Acute Liver Damage associated with Centrilobular Necrosis (carbon tetrachloride); experiment: Protective effect on acute liver damage associated with centrilobular necrosis (carbon tetrachloride model); format: in vivo, mice (four-week-old male, dd strain); settings: 250 mg/kg oral 6 h before CCl4, average of 5 to 6 mice

With `CC(C)OC(=O)C(C(=O)OC(C)C)=C1SCCS1` [Compound 4, Diisopropyl 1,3-dithiolan-2-yliden malonate] the “Concentration of BSP in plasma” value ([1]; 2 Days) was 7.6 ± 1.1 mg/dL, the “Concentration of BSP in plasma” value ([1]; 5 Days) was 3.8 ± 0.5 mg/dL and the “Concentration of BSP in plasma” value ([1]; 10 Days) was 0.3 ± 0.1 mg/dL. The “Triglyceride (content in the liver, as triolein)” value (fatty liver (ethionine)) was 10.4 ± 1.6 mg/g, the Triglyceride in liver [2] was 4.6 ± 0.73 mg/g and the p-GPT [2] was 63±23 Karmen unit. The “Index of hepatotoxicity: BSP (residual quantity of BSP)” value [3] was 16±2.3, the “p-GPT (plasma glutamic-pyruvic transaminase activity)” value ([4]; 24 h after CCl4, values over 1,000 regarded as 1,000) was 23 Karmen units and the “Liver Damage Index” value ([4]; 0 normal, 2 slightly recognized, 4 clearly observable damage, 6 heavy damage) was 0.2.

Reference: US4080467A, “Pharmaceutical compositions comprising 1,3-dithiolan-2-ylidene malonate derivatives” (Nihon Nohyaku Co., Ltd., priority 1976, dated 1978)
